In patent US20160159816A1, “SUBSTITUTED THIENOPYRIMIDINES AND PHARMACEUTICAL USE THEREOF” (BAYER PHARMA AKTIENGESELLSCHAFT, priority 2013, published 2016):

molecular target: T1, human full-length MKNK1 (Homo sapiens, UniProt Q9BUB5, T385D); assay: MKNK1 kinase high ATP assay (TR-FRET); format: biochemical; conditions: high ATP (2 mM), after preincubation with MKNK1; compounds of the present invention (Table 1a)
T1 construct: GST (N); purchased Carna Biosciences 02-145; host or cells: insect cells, baculovirus expression system
Procedure: MKNK1-inhibitory activity at high ATP of compounds of the present invention after their preincubation with MKNK1 was quantified employing the TR-FRET-based MKNK1 high ATP assay as described in the following paragraphs.
A recombinant fusion protein of Glutathione-S-Transferase (GST, N-terminally) and human full-length MKNK1 (amino acids 1-424 and T344D of accession number BAA 19885.1), expressed in insect cells using baculovirus expression system and purified via glutathione sepharose affinity chromatography, was purchased from Carna Biosciences (product no 02-145) and used as enzyme. As substrate for the kinase reaction the biotinylated peptide biotin-Ahx-IKKRKLTRRKSLKG (C-terminus in amide form) was used, which can be purchased e.g. from the company Biosyntan (Berlin-Buch, Germany).
For the assay 50 nL of a 100 fold concentrated solution of the test compound in DMSO was pipetted into a black low volume 384 well microtiter plate (Greiner Bio-One, Frickenhausen, Germany), 2 μL of a solution of MKNK1 in aqueous assay buffer [50 mM HEPES pH 7.5, 5 mM MgCl2, 1.0 mM dithiothreitol, 0.005% (v/v) Nonidet-P40 (Sigma)] was added and the mixture was incubated for 15 min at 22° C. to allow pre-binding of the test compounds to the enzyme before the start of the kinase reaction. Then the kinase reaction was started by the addition of 3 μL of a solution of adenosine-tri-phosphate (ATP, 3.3 mM=>final conc. in the 5 μL assay volume is 2 mM) and substrate (0.1 μM=>final conc. in the 5 μL assay volume is 0.06 μM) in assay buffer and the resulting mixture was incubated for a reaction time of 30 min at 22° C. The concentration of MKNK1 was adjusted depending of the activity of the enzyme lot and was chosen appropriate to have the assay in the linear range, typical concentrations were in the range of 0.003 μg/mL. The reaction was stopped by the addition of 5 μL of a solution of TR-FRET detection reagents (5 nM streptavidine-XL665 [Cisbio Bioassays, Codolet, France] and 1 nM anti-ribosomal protein […] (pSer236)-antibody from Invitrogen [#44921G] and 1 nM LANCE EU-W1024 labeled ProteinG [Perkin-Elmer, product no. AD0071]) in an aqueous EDTA-solution (100 mM EDTA, 0.1% (w/v) bovine serum albumin in 50 mM HEPES pH 7.5).
The resulting mixture was incubated for 1 h at 22° C. to allow the formation of complex between the phosphorylated biotinylated peptide and the detection reagents. Subsequently the amount of phosphorylated substrate was evaluated by measurement of the resonance energy transfer from the Eu-chelate to the streptavidine-XL. Therefore, the fluorescence emissions at 620 nm and 665 nm after excitation at 350 nm were measured in a TR-FRET reader, e.g. a Rubystar (BMG Labtechnologies, Offenburg, Germany) or a Viewlux (Perkin-Elmer). The ratio of the emissions at 665 nm and at […] was taken as the measure for the amount of phosphorylated substrate. The data were normalised (enzyme reaction without inhibitor=0% inhibition, all other assay components but no enzyme=100% inhibition). […] Table 1a lists MKNK1 high ATP IC50 values of some compounds of the present invention.

T1 sequence (Q9BUB5 1-424 isoform Q9BUB5-2 T344D): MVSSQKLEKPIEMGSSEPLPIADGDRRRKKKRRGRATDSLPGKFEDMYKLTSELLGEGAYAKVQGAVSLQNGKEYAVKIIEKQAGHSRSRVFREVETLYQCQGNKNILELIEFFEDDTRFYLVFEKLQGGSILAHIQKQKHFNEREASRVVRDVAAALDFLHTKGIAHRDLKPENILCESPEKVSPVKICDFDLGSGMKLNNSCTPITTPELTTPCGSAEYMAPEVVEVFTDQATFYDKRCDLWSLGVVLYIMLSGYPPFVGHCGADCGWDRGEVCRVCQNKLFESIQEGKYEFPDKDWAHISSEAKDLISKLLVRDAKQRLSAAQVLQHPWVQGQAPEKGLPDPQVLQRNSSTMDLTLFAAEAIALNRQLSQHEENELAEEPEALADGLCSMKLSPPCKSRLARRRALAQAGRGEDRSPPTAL

SMILES	IC50
COCC1(OC)CCc2c(sc3ncnc(Nc4cc5cn[nH]c5cc4C)c23)C1 (single isomer, unassigned) [Example 41, (7S) or (7R) 7-Methoxy-7-(methoxymethyl)-N-(6-methyl-1H-indazol-5-yl)-5,6,7,8-tetrahydro[1]benzothieno[2,3-d]pyrimidin-4-amine]	371 nM
COc1cc2[nH]ncc2cc1Nc1ncnc2sc3c(c12)CC[C@@](C)(C(=O)N1CCOCC1)C3 [Example 53, (7R) {4-[(6-Methoxy-1H-indazol-5-yl)amino]-7-methyl-5,6,7,8-tetrahydro[1]benzothieno[2,3-d]pyrimidin-7-yl}(morpholin-4-yl)methanone]	18.9 nM
CC(C)C(=O)NCC1CCc2c(sc3ncnc(Nc4ccc5[nH]ncc5c4)c23)C1 (racemic) [Example 10, (RS)—N-{[4-(1H-Indazol-5-ylamino)-5,6,7,8-tetrahydro[1]benzothieno[2,3-d]pyrimidin-7-yl]methyl}-2-methylpropanamide]	11 nM
CC(C)(O)C1CCc2c(sc3ncnc(Nc4ccc5[nH]ncc5c4)c23)C1 (racemic) [Example 4, (RS)-2-[4-(1H-Indazol-5-ylamino)-5,6,7,8-tetrahydro[1]benzothieno[2,3-d]pyrimidin-7-yl]propan-2-ol]	39.1 nM
COCCN(C)C(=O)[C@@]1(C)CCc2c(sc3ncnc(Nc4cc5cn[nH]c5cc4OC)c23)C1 [Example 56, (7S) N-(2-Methoxyethyl)-4-[(6-methoxy-1H-indazol-5-yl)amino]-N,7-dimethyl-5,6,7,8-tetrahydro[1]benzothieno[2,3-d]pyrimidine-7-carboxamide]	4.5 nM
CC[C@]1(C(=O)N(C)C)CCc2c(sc3ncnc(Nc4cc5cn[nH]c5cc4OC)c23)C1 [Example 51, (7S) 7-Ethyl-4-[(6-methoxy-1H-indazol-5-yl)amino]-N,N-dimethyl-5,6,7,8-tetrahydro[1]benzothieno[2,3-d]pyrimidine-7-carboxamide]	1.7 nM
OCc1cnnn1C[C@@H]1CCc2c(sc3ncnc(Nc4ccc5[nH]ncc5c4)c23)C1 (single isomer, unassigned) [Example 33, (1-{[(7R or 7S)-4-(1H-Indazol-5-ylamino)-5,6,7,8-tetrahydro[1]benzothieno[2,3-d]pyrimidin-7-yl]methyl}-1H-1,2,3-triazol-5-yl)methanol]	16.9 nM
COc1cc2[nH]ncc2cc1Nc1ncnc2sc3c(c12)CC[C@@](C)(C(=O)N1CCC1)C3 [Example 61, (7R) Azetidin-1-yl{(7S)-4-[(6-methoxy-1H-indazol-5-yl)amino]-7-methyl-5,6,7,8-tetrahydro[1]benzothieno[2,3-d]pyrimidin-7-yl}methanone]	11.7 nM
COCC1(OC)CCc2c(sc3ncnc(Nc4cc5cn[nH]c5cc4C)c23)C1 (single isomer, unassigned) [Example 40, (7R) or (7S) 7-Methoxy-7-(methoxymethyl)-N-(6-methyl-1H-indazol-5-yl)-5,6,7,8-tetrahydro[1]benzothieno[2,3-d]pyrimidin-4-amine]	487 nM
COCC1(OC)CCc2c(sc3ncnc(Nc4cc5cn[nH]c5cc4F)c23)C1 (single isomer, unassigned) [Example 45, (7S) or (7R) N-(6-Fluoro-1H-indazol-5-yl)-7-methoxy-7-(methoxymethyl)-5,6,7,8-tetrahydro[1]benzothieno[2,3-d]pyrimidin-4-amine]	89 nM
N[C@@H](CCO)C(=O)NCC1CCc2c(sc3ncnc(Nc4ccc5[nH]ncc5c4)c23)C1 (mixture of isomers) [Example 16, N-{[(7RS)-4-(1H-Indazol-5-ylamino)-5,6,7,8-tetrahydro[1]benzothieno[2,3-d]pyrimidin-7-yl]methyl}-L-homoserinamide]	20.8 nM
CC(C)OC(=O)NCC1CCc2c(sc3ncnc(Nc4ccc5[nH]ncc5c4)c23)C1 (racemic) [Example 9, (RS)-Propan-2-yl {[4-(1H-indazol-5-ylamino)-5,6,7,8-tetrahydro[1]benzothieno[2,3-d]pyrimidin-7-yl]methyl}carbamate]	30.2 nM
COc1cc2[nH]ncc2cc1Nc1ncnc2sc3c(c12)CC[C@@](C)(C(=O)N(C)C)C3 [Example 49, (7R) 4-[(6-Methoxy-1H-indazol-5-yl)amino]-N,N,7-trimethyl-5,6,7,8-tetrahydro[1]benzothieno[2,3-d]pyrimidine-7-carboxamide]	13.3 nM
COc1cc2[nH]ncc2cc1Nc1ncnc2sc3c(c12)CCCC3 [Example 2, N-(6-methoxy-1H-indazol-5-yl)-5,6,7,8-tetrahydro[1]benzothieno[2,3-d]pyrimidin-4-amine]	13.5 nM

Other lines, results leading:

IC50	SMILES
20.4 nM	CC[C@@]1(C(=O)N(C)OC)CCc2c(sc3ncnc(Nc4cc5cn[nH]c5cc4OC)c23)C1 [Example 66, (7R) 7-Ethyl-N-methoxy-4-[(6-methoxy-1H-indazol-5-yl)amino]-N-methyl-5,6,7,8-tetrahydro[1]benzothieno[2,3-d]pyrimidine-7-carboxamide]
1.4 nM	CC[C@]1(C(=O)N(C)C(C)C)CCc2c(sc3ncnc(Nc4cc5cn[nH]c5cc4OC)c23)C1 [Example 73, (7S) 7-Ethyl-N-isopropyl-4-[(6-methoxy-1H-indazol-5-yl)amino]-N-methyl-5,6,7,8-tetrahydro[1]benzothieno[2,3-d]pyrimidine-7-carboxamide]
3 nM	CC[C@]1(C(=O)N(C)CCOC)CCc2c(sc3ncnc(Nc4cc5cn[nH]c5cc4OC)c23)C1 [Example 65, (7S) 7-Ethyl-N-(2-methoxyethyl)-4-[(6-methoxy-1H-indazol-5-yl)amino]-N-methyl-5,6,7,8-tetrahydro[1]benzothieno[2,3-d]pyrimidine-7-carboxamide]
24.6 nM	CC[C@@]1(C(=O)N2CCC2)CCc2c(sc3ncnc(Nc4cc5cn[nH]c5cc4OC)c23)C1 [Example 68, (7R) Azetidin-1-yl{(7S)-7-ethyl-4-[(6-methoxy-1H-indazol-5-yl)amino]-5,6,7,8-tetrahydro[1]benzothieno[2,3-d]pyrimidin-7-yl}methanone]
1.6 nM	CC[C@]1(C(=O)N2C[C@@H](C)O[C@@H](C)C2)CCc2c(sc3ncnc(Nc4cc5cn[nH]c5cc4OC)c23)C1 [Example 71, (7S) [(2R,6S)-2,6-Dimethylmorpholin-4-yl]{7-ethyl-4-[(6-methoxy-1H-indazol-5-yl)amino]-5,6,7,8-tetrahydro[1]benzothieno[2,3-d]pyrimidin-7-yl}methanone]
1.8 nM	CC[C@]1(C(=O)N(C)OC)CCc2c(sc3ncnc(Nc4cc5cn[nH]c5cc4OC)c23)C1 [Example 67, (7S) 7-Ethyl-N-methoxy-4-[(6-methoxy-1H-indazol-5-yl)amino]-N-methyl-5,6,7,8-tetrahydro[1]benzothieno[2,3-d]pyrimidine-7-carboxamide]
20.6 nM	CC[C@]1(C(=O)N2CCOC[C@H]2C)CCc2c(sc3ncnc(Nc4cc5cn[nH]c5cc4OC)c23)C1 [Example 75, {(7S)-7-Ethyl-4-[(6-methoxy-1H-indazol-5-yl)amino]-5,6,7,8-tetrahydro[1]benzothieno[2,3-d]pyrimidin-7-yl}[(3R)-3-methylmorpholin-4-yl]methanone]
3.4 nM	CC[C@]1(C(=O)N2CCC2)CCc2c(sc3ncnc(Nc4cc5cn[nH]c5cc4OC)c23)C1 [Example 69, (7S) Azetidin-1-yl{(7S)-7-ethyl-4-[(6-methoxy-1H-indazol-5-yl)amino]-5,6,7,8-tetrahydro[1]benzothieno[2,3-d]pyrimidin-7-yl}methanone]
31.7 nM	CC[C@@]1(C(=O)N2CCOCC2)CCc2c(sc3ncnc(Nc4cc5cn[nH]c5cc4OC)c23)C1 [Example 62, (7R) {7-Ethyl-4-[(6-methoxy-1H-indazol-5-yl)amino]-5,6,7,8-tetrahydro[1]benzothieno[2,3-d]pyrimidin-7-yl}(morpholin-4-yl)methanone]
